Literature values as cited in patent US4439425A, “Peptide derivatives” (Ciba-Geigy Corporation, priority 1979, dated 1984).

Test system: lymphocytes
Details: Z. Immun.-Forschung 153, 11-22 (1977)

## murein lipoprotein: murein lipoprotein of the outer cell wall of Escherichia coli
  in vitro mitogenic activity: in vitro mitogenic activity towards some lymphocytes
